Measured values published in US5133975A, “Method for in vivo inactivation of blood borne HIV virus using a mixture of ozone and oxygen” (RJH and Company, Inc., priority 1989, dated 1992).

Tests used:
herpes simplex = assay: remission of herpes lesions in patient (Example 3)
coliform = conditions: in vitro, pure ozone; cited from earlier work
mice = conditions: 3 hours of inhalation; cited from earlier work
human subjects = conditions: 0.24 ppm for two hours; cited from earlier work
enteroviruses = conditions: in vitro, pure ozone; cited from earlier work
mammals = conditions: overdoses of pure O3; cited from earlier work
S. aureus = conditions: in vitro, pure ozone; cited from earlier work
coxsachie = conditions: in vitro, pure ozone; cited from earlier work
Aeromonas hydrophilia = conditions: in vitro, pure ozone; cited from earlier work
poliovirus 2 = conditions: in vitro, pure ozone; cited from earlier work

## Nc1nc2c(ncn2COCCO)c(=O)[nH]1 [acyclovir]
Herpes simplex
  herpes lesions during treatment with acyclovir: had persisted

## O=[O+][O-] [ozone]
coliform
  inactivation of coliform: inactivates
mice
  LD50: 22 ppm
Human subjects
  cell functions: inhibition of certain cell functions
  enzyme activities: wide fluctuations in enzyme activities
  respiratory capacity: drops in respiratory capacity
enteroviruses
  inactivation of enteroviruses: inactivates
mammals
  signs of overdose: pulmonary edema and hemorrhaging
S. aureus
  inactivation of S. aureus: inactivates
coxsachie
  inactivation of coxsachie: inactivates
Aeromonas hydrophilia
  inactivation of Aeromonas hydrophilia: inactivates
Poliovirus 2
  inactivation of poliovirus 2: inactivates
